This note sets out measurements from ChEMBL document CHEMBL1201862, “PubChem BioAssay data set” (2004).

The structures appear in SMILES notation.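 Step 1: Grow cells in 96-well plates. Step 2: Expose to compound for 48 hours at 5 concentrations. Step 3: Interpolate endpoints linearly; if unreached, use highest concentration. GI50 marks 50% less growth.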 Activity calls are given as the source filed them. No stated cut-off is given here; in the data, active = GI50 up to about 1.1 µM and inactive = higher. Some results are limits rather than exact numbers.

Among the test systems are MDA-MB-435; OVCAR-3; SN12C; HCC 2998; HL-60; RPMI-8226; EKVX; HOP-62; HCT-15; DU-145; NCI-H460; CAKI-1; IGROV-1; MDA-MB-231; T47D; SK-MEL-2; SNB-19; A498; SNB-75; SR.
What all share (experiment): DTP human tumour cell line panel, 48 h

`CC(C)=CCC[C@H](C)[C@H]1CC[C@@H](C)c2cc(O)c(C)cc21`: the GI50 was 18.6 µM (inactive) in the assay with MDA-MB-435; 18.8 µM (inactive) with OVCAR-3; 15.9 µM (inactive) in the assay on SN12C; 18.9 µM (inactive) in the assay with HCC 2998; 21.1 µM (inactive) in the assay on HL-60; 26.1 µM (inactive) in the assay with RPMI-8226. The GI50 in the assay with EKVX is 17.6 µM (inactive); in the assay with HOP-62, 19.1 µM (inactive); in the assay with HCT-15, 18.3 µM; in the assay on DU-145, 19.5 µM (inactive); in the assay with NCI-H460, 18.4 µM (inactive); in the assay with CAKI-1 it was 15.7 µM (inactive). Moreover, the GI50 is 17.1 µM (inactive) in the assay with IGROV-1; 18.2 µM (inactive) in the assay with MDA-MB-231; 16.9 µM (inactive) with T47D; 17 µM (inactive) in the assay on SK-MEL-2; 16.6 µM (inactive) in the assay on SNB-19; 16.6 µM (inactive) in the assay with A498. Besides, in the assay on SNB-75, the GI50 was 19.1 µM (inactive).

In the case of `COc1cc(CNc2nc3ccccc3n2Cc2ccccc2)cc(CN2CCOCC2)c1O`, the GI50 is 22.5 µM (inactive) in the assay on MDA-MB-435; 20.6 µM (inactive) with OVCAR-3; 44.2 µM (inactive) in the assay with SN12C; 33.9 µM (inactive) in the assay with HCC 2998; 91 µM (inactive) with RPMI-8226; 53.3 µM (inactive) in the assay on EKVX. Also, the GI50 with HOP-62 is 28.6 µM (inactive); in the assay with HCT-15, 29.6 µM; with DU-145 it was 80.9 µM (inactive); with NCI-H460 it was 50.9 µM (inactive); with CAKI-1, 26.2 µM (inactive); in the assay on IGROV-1, 52 µM (inactive). The GI50 was 18.7 µM (inactive) in the assay on MDA-MB-231; > 100 µM (inactive) with T47D; 22.4 µM (inactive) with SK-MEL-2; 61.8 µM (inactive) with SNB-19; 21.1 µM (inactive) with A498; 27.9 µM (inactive) in the assay with SNB-75.

Consider `COC(=O)[C@]1(C)CCC[C@]2(C)[C@H]3CC[C@]4(C(C)C)OO[C@@H](O4)[C@]34O[C@@H]4C[C@H]21`, for which the GI50 in the assay on SR was 0.238 µM (active); in the assay with MDA-MB-435, 1.79 µM (inactive); in the assay with OVCAR-3 it was 1.8 µM (inactive); in the assay with SN12C it was 3.02 µM (inactive); with HCC 2998 it was 2.15 µM (inactive); in the assay with HL-60 it was 1.68 µM (inactive). Besides, the GI50 in the assay with RPMI-8226 is 3.44 µM (inactive); in the assay on EKVX, 1.87 µM (inactive); in the assay on HOP-62, 2.12 µM (inactive); in the assay on HCT-15, 2.16 µM; with DU-145, 1.64 µM (inactive); in the assay with NCI-H460, 1.88 µM (inactive). Also, the GI50 with CAKI-1 was 0.384 µM (active); in the assay on IGROV-1, 0.157 µM (active); with MDA-MB-231, 4.11 µM (inactive); with T47D it was 1.76 µM (inactive); in the assay on SK-MEL-2, 14.3 µM (inactive); with SNB-19, 10.8 µM (inactive). Also, in the assay on SNB-75, the GI50 was 3.87 µM (inactive).

In the case of `COc1cccc(Nc2nc3c([nH]2)c(=O)n(C)c(=O)n3C)c1`, the GI50 in the assay on SR, with MDA-MB-435, with SN12C, in the assay on HCC 2998, in the assay on HL-60 and with RPMI-8226 was > 10 µM (inactive) throughout. Besides, the GI50 in the assay on EKVX is > 10 µM (inactive); in the assay on HOP-62, > 10 µM (inactive); in the assay on HCT-15, greater than 10 µM; in the assay on DU-145, > 10 µM (inactive); in the assay with CAKI-1, > 10 µM (inactive); with IGROV-1 it was > 10 µM (inactive). For the same compound, the GI50 in the assay on MDA-MB-231, in the assay with T47D and with SNB-75 was > 10 µM (inactive) in each case.

As to `O=C(CSc1nc2ccc(Cl)cc2c(=O)n1-c1ccccc1)N/N=C1\C(=O)Nc2ccc(F)cc21`, the GI50 in the assay with MDA-MB-435 was 2.43 µM (inactive); with OVCAR-3 it was 1.89 µM (inactive); in the assay with SN12C it was 2.08 µM (inactive); with HCC 2998, 2.69 µM (inactive); with HL-60, 3.66 µM (inactive); in the assay on RPMI-8226, 1.77 µM (inactive). In addition, the GI50 in the assay with EKVX was 3 µM (inactive); in the assay on HOP-62, 1.75 µM (inactive); in the assay on HCT-15 it was 1.96 µM; with DU-145 it was 2.16 µM (inactive); in the assay on NCI-H460, 3.7 µM (inactive); in the assay on CAKI-1, 4.81 µM (inactive). Besides, the GI50 with IGROV-1 was 2.17 µM (inactive); in the assay with MDA-MB-231 it was 2.76 µM (inactive); in the assay with T47D, 2.07 µM (inactive); in the assay with SK-MEL-2, 1.95 µM (inactive); with SNB-19 it was 2.97 µM (inactive); with A498 it was 2.38 µM (inactive). Moreover, the GI50 with SNB-75 is 2.24 µM (inactive).

In the case of `COc1ccc(C2C(C#N)=C(S)N(C3OC(COC(C)=O)C(OC(C)=O)C(OC(C)=O)C3OC(C)=O)C(C)=C2C(C)=O)cc1` (configuration not stated), the GI50 in the assay on SR is 49.1 µM (inactive); with MDA-MB-435, 66.4 µM (inactive); with OVCAR-3, 64.7 µM (inactive); with SN12C it was > 100 µM (inactive); in the assay with HCC 2998 it was > 100 µM (inactive); in the assay with HL-60, 46.3 µM (inactive). Further, the GI50 was 73.1 µM (inactive) with RPMI-8226; > 100 µM (inactive) with HOP-62; greater than 100 µM in the assay on HCT-15; > 100 µM (inactive) with DU-145; 83.4 µM (inactive) in the assay with NCI-H460; > 100 µM (inactive) with CAKI-1. Besides, the GI50 with IGROV-1 was > 100 µM (inactive); with MDA-MB-231 it was > 100 µM (inactive); in the assay on T47D it was 28.6 µM (inactive); with SK-MEL-2, > 100 µM (inactive); in the assay on SNB-19 it was > 100 µM (inactive); in the assay on SNB-75 it was 26.4 µM (inactive).

`O=c1[nH]c(=O)n(C2CC(O)C(CO)O2)cc1OC/C=C/Cc1ccccc1` (configuration not stated): the GI50 in the assay on SR, in the assay with MDA-MB-435, with OVCAR-3, in the assay with SN12C, in the assay with HL-60 and in the assay on RPMI-8226 was > 100 µM (inactive) each time. Moreover, the GI50 in the assay with EKVX was > 100 µM (inactive); in the assay with HOP-62, > 100 µM (inactive); in the assay on HCT-15, greater than 100 µM; with DU-145, > 100 µM (inactive); in the assay with NCI-H460, > 100 µM (inactive); with CAKI-1, > 100 µM (inactive). Also, the GI50 with IGROV-1, in the assay with MDA-MB-231, in the assay with T47D, in the assay on SNB-19 and in the assay with SNB-75 was > 100 µM (inactive) each time.

With `CCOC(=O)[C@@H]1C[C@@H]1c1ccc(O)c(O)c1`, the GI50 is 14.5 µM (inactive) in the assay with SR; 16.9 µM (inactive) in the assay on MDA-MB-435; 16.6 µM (inactive) in the assay with OVCAR-3; 78.2 µM (inactive) in the assay on SN12C; 24.9 µM (inactive) with HCC 2998; 18.1 µM (inactive) in the assay on RPMI-8226. Besides, the GI50 was 38.6 µM (inactive) in the assay on EKVX; 17.6 µM (inactive) with HOP-62; 45.5 µM with HCT-15; 64 µM (inactive) with DU-145; 58.9 µM (inactive) in the assay on NCI-H460; 38.1 µM (inactive) in the assay on CAKI-1. Also, the GI50 with IGROV-1 is 35.3 µM (inactive); in the assay on MDA-MB-231, 11 µM (inactive); in the assay on T47D it was 16 µM (inactive); with SK-MEL-2, 29.7 µM (inactive); with SNB-19 it was 49 µM (inactive).

For orientation: GI50 means the concentration at which growth is held to half of that of the control.
